Test results as given in patent US10604493B2, “Compositions, methods of use, and methods of treatment” (priority 2012, dated 2020).

Assays:
[1] = system: O=C(Cc1cccs1)N[C@@H]1C(=O)N2C(C(=O)O)=C(/C=C/c3ccc([N+](=O)[O-])cc3[N+](=O)[O-])CS[C@H]12; assay: purified protein, by the assay type; conditions: other: substrate, 100 mM Tris-HCl pH 7.0, 0.01% Triton X-100
[2] = biological target: CTX-M-9 (Escherichia coli, UniProt Q9L5C8); assay: biochemical; conditions: for LipE (defined as log Ki-c log P): from Ki against CTX-M-9 and c log P
From the text: To investigate the effectiveness of the new analogs, we employed CTX-M-9 and a UV-absorbance based biochemical assay to obtain binding affinities. […] The parameter LipE (defined as log Ki-c log P)^24 provides a measure of binding affinity improvement achieved while retaining favorable physiochemical properties.
The compounds were synthesized as previously described or purchased from the company Chembridge, and assayed without further purification. The highest concentrations at which the compounds were tested were up to 1-3 mM (depending on their solubility) in IC50 experiment. The reaction was initiated by adding protein to the reaction buffer last.

Compound | LipE (defined as log Ki-c log P) [2] | Ki [2] [µM] | other results
CTX-M-9 (Escherichia coli) |  |  | Km [1]: 24 µM
O=C(Nc1cccc(-c2nnn[nH]2)c1)c1cccc(F)c1 [Compound 1] | 1.37 |  | 
CC(=O)c1cccc(C(=O)Nc2cccc(-c3nnn[nH]3)c2)c1 [Compound 7, 3-Acetyl-N-[3-(1H-tetrazol-5-yl)-phenyl]-benzamide] | 2.51 |  | 
N#Cc1cccc(C(=O)Nc2cccc(-c3nnn[nH]3)c2)c1 [Compound 14, 3-Cyano-N-[3-(1H-tetrazol-5-yl)-phenyl]-benzamide] |  | 7.2 | 
O=C(Nc1cccc(-c2nnn[nH]2)c1)c1cc(C(F)(F)F)cc2nc[nH]c12 [Compound 19, 6-Trifluoromethyl-3H-benzoimidazole-4-carboxylic acid [3-(1H-tetrazol-5-yl)-phenyl]-amide] | 3.86 | 0.089 | ligand efficiency (L.E.) ([2]; from Ki against CTX-M-9): 0.36
O=C(Nc1cccc(-c2nnn[nH]2)c1)c1cc(F)cc2nc[nH]c12 [Compound 23, 6-Fluoro-3H-benzoimidazole-4-carboxylic acid [3-(1H-tetrazol-5-yl)-phenyl]-amide] |  |  | potency (Ki) relative to comparator compound, in words ([2]; CTX-M-9): only equipotent to des-fluoro comparator 16
